Measurements: US20230331781A1, “PAR4 DERIVED PEPTIDES, ANALOGS AND USES THEREOF” (Yissum Research Development Company of the Hebrew …, priority 2019, published 2023)
Entries after “also recorded” stand apart in the source; their conditions may differ. Numbered stars: 1 amine (or outer) side, 2 acyl side, 3 side chain; on linkers, the order of the positions; unused ones are H or OH. Bridge positions count the residues as written; N and C are the ends. Square brackets hold non-standard residues; d marks the D form. Ends that are not written are not given here. GlyBU(C4) = Gly building unit (N-alpha-functionalized Gly) carrying a C4 alkyl chain (n = m = 4), bridged through a urea group; CO = O=C([*:1])[*:2]

Experiments:
HCT116 cells = assay: Xenograft tumor model, HCT116 cells inoculated subcutaneously in nude mice; format: in vivo; settings: s.c., 100 μM, 0.25 mg/30 gm, 3 times/week, from day of inoculation or 4 days later, terminated after 20 days
Protocol: HCT116 cells (1×10^6) were injected subcutaneously to nude mice. Pc(4-4) (100 μM; 0.25 mg/30 gm) was subcutaneously injected, either at the same day of tumor cell inoculation or 4 days later. The inhibitor was applied repeatedly 3 times/week for 3 weeks. Mice were weighted every 3 days and tumor size was measured. Mice were sacrificed after 21 days. This is a representative of three times performed experiments. […] Tumor volume measurements of HCT116 cells inoculated into nude mice. Tumors were weighed and measured for size at the indicated time points and tumor volume was calculated. Error bars show s.d.; * P<0.05; *** P<0.001; while ns are considered as not significant.
Another cell lines used in the experiment was HCT-116, an aggressive colon cancer cell line overexpressing oncogenes including PAR4.
Male athymic nude mice aged 6-7 weeks were pre-implanted subcutaneously with the relevant cells (1×10^6 cells): either with HCT-116 or with RKO/hPar4 cells.
The inhibitor was injected at the site of the tumor at the day of inoculation. In an additional group, mice implanted with HCT-116 were administered with the inhibitor at day 4 after inoculation. […]
Mice were monitored for tumor size by external caliber measurements (length and width) on days 7, 14, 22 and for up to 32 days, if tumor burden allowed. Tumor volume (V) was calculated by V=L×W^2×0.5, where L is length and W is width. […]

RKO/hPar4 tumors = assay: Pre-formed RKO/hPar4 tumors in nude mice; format: in vivo; settings: injection s.c. near tumor started 3 weeks post inoculation (~1 cm tumors), 5 mg/kg
Protocol: Tumors generated by the RKO/Par4 clone/s (1×10^6 cells, subcutaneously). Injections of the inhibitor Pc(4-4) have started 3 weeks post cell inoculation (5 mg/kg, every other day). FIG. 12B—levels of Par4 in stable clone/s of RKO cells. Error bars show s.d.; *** P<0.001. FIG. 12C—pre-formed tumors. Mice bearing tumors formed (˜1 cm) prior to the Pc(4-4) injection. FIG. 12D tumor volume (cm3). Tumors generated throughout the experimental period versus injections of Pc(4-4) initiated 3 weeks post cell inoculation. Each treatment group contained 7 mice. This is a representative of three times performed experiments. Error bars show s.d.; ** P<0.01.
In this experimental design, RKO/hPar4 clone/s (1×10^6 cells) were implanted in nude mice (Par4 levels in the clones) (FIG. 12A-12D). Tumors were slowly formed (during 3 weeks). At the time tumors were distinctly observed (˜1 cm length, FIG. 12C), the Pc(4-4) inhibitor was injected s.c. in the vicinity of the tumor site (3×week; 5 mg/kg). At the time the experiment was terminated large RKO/hPar4 tumors were observed. […] Activation of PAR4 leads to the phosphorylation of EGFR. AYPGKF activation of PAR4 leads to pTyr-EGFR. This was shown by co-transfection of HEK293 cells with hPar4 and egfr followed by AYPGKF PAR4 activation. Western blot detection of EGFR Tyr (Y)-phosphorylation (pY-EGFR), was carried-out by anti phospho-Tyr antibodies (FIG. 13A). […]

pEGFR = assay: PAR4 induced pEGFR in MDA-MB-231 cells (Western blot); format: cell-based, human; settings: endogenous PAR4 and EGFR, AYPGKF 200 μM, FIG. 17
Protocol: Activation of PAR4 induces phosphorylation of EGFR. This is seen 15 min following AYPGKF the synthetic hexa peptide application for PAR4 activation. MDA-231 cells were serum starved over night following AYPGKF PAR4 activation (200 μM) for 5-60 min. Detection by Western blot analyses of pY-EGFR and EGFR was performed using either anti-phospho tyrosine or anti EGFR antibodies respectively. PAR4 activation induces EGFR tyrosine phosphorylation within 15 min.
We have performed immunohistochemical (IHC) staining analyses of EGFR in Her2/Neu and TN breast cancer patient tissues. Analyses have indicated the presence of EGFR in both HER2/Neu as also in TN breast cancer tissue biopsy specimen (FIGS. 16A and 16B, respectively). Pc(4-4) Inhibits PAR4 Induced pEGFR in MDA-MB-231 Cells MDA-MB-231 cells were serum starved overnight following AYPGKF PAR4 activation (200 μM) for 5-60 min in the presence and absence of Pc(4-4) (200 μM). Detection by Western blot analyses of pEGFR and EGFR was performed using either anti-phosphotyrosine or anti-EGFR antibodies (1:1000 dilution), respectively. […] AYPGKF activation of PAR4 leads to pTyr-EGFR in MDA-231 cells (see FIG. 17). […] In the presence of Pc(4-4) cyclic peptide (right panel) potently (200 μM) inhibition of the phosphorylation of EGFR is observed (FIG. 17). […]

Substance: Pc(4-4): backbone cyclic analog of Formula I, m=n=4, ring size 30 atoms (S[GlyBU(C4)]EFRDK[GlyBU(C4)]; bridge 2-8 via CO; not fully specified; printed as SZ1EFRDKX3)
- tumor growth / tumor size (HCT116 cells): significantly smaller tumors; also recorded: potently inhibits
- tumor growth / tumor size (HCT116 cells; listed as PAR4 (4-4)): much smaller tumors
- size of pre-formed tumors (RKO/hPar4 tumors): distinctly smaller tumors; also recorded: inhibits
- inhibition of PAR4 induced phosphorylation of EGFR (pEGFR): potently inhibited
